The values below come from patent US5939405A, “Phosphate derivatives of diaryl 1,3,4-oxadiazolone” (priority 1999, dated 1999).

Data set [1] relates to cloned mammalian (mSlo or hSlo) BK channels. The data set is described as follows: BK-mediated outward current in Xenopus oocytes, two-electrode voltage clamp. In kind it is cell-based. Conditions: 1 μM; at least 5 oocytes; mSlo or hSlo expressed in Xenopus oocytes. How it is done:
(§1) The ability of the compound of Example 1 to open BK channels and increase whole-cell outward (K^+) BK-mediated currents was assessed under voltage-clamp conditions by determining their ability to increase cloned mammalian (mSlo or hSlo) BK-mediated outward current heterologously expressed in Xenopus oocytes [Butler, A., et al., Science, 261, pp. 221-224 (1993); and Dworetzky, S. I., et al., Mol. Brain Res., 27, pp.189-193 (1994)]. The two BK constructs employed represent nearly structurally identical homologous proteins, and have proven to be pharmacologically identical in our tests. To isolate BK current from native (background, non-BK) current, the specific and potent BK channel-blocking toxin iberiotoxin (IBTX) [Galvez, A., et al., J. Biol. Chem,265, pp. 11083-11090 (1990)] was employed at a supramaximal concentration (50 nM). The relative contribution of BK channels current to total outward current was determined by subtraction of the current remaining in the presence of IBTX (non-BK current) from the current profiles obtained in all other experimental conditions (control, drug, and wash). […]

Data set [2] deals with non-BK native currents in the oocytes. The data set is described as follows: non-BK (IBTX-insensitive) native current in oocytes, voltage clamp. Conditions: at the tested concentration; current remaining in presence of 50 nM IBTX. Type of data set: cell-based, Xenopus. The method, then: as §1
A further data set relates to cortical infarct volume. The data set is described as follows: focal stroke model, permanent MCA and CCA occlusion. Conditions: 10 μg/kg intravenously, single bolus two hours after MCAO; Wistar rat; infarct measured 24 hours after MCAO; vs vehicle-treated (water) control. In kind it is in vivo. The method, then: To determine the ability of the compounds of the present invention to reduce cell loss resulting from neuronal ischemia, a standard focal cerebral ischemia is induced by permanent occlusion of the left middle cerebral artery (MCA) and common carotid artery (CCA) with one hour occlusion of the right CCA in the Wistar rat. The surgeries are performed using the sub-temporal approach of A. Tamura, et al., J. Cereb. Blood Flow Metab., 1, pp. 53-60, (1981) and its modifications [K. Osborne, et al., J. Neurol Neurosurg. Psychiatry, 50, pp. 402-410 (1987) and S. Menzies, et al., Neurosurgery, 31, pp. 100-107, (1992).]
The compound of Example 1 was evaluated in the focal stroke model involving permanent occlusion of the left MCA (MCAO) and CCA (CCAO) and temporary occlusion of the right CCA in the Wistar rat. This procedure results in a reliably large neocortical infarct volume that is measured by means of vital dye exclusion in serial slices through the brain 24 hours after MCAO. In the present test, compounds were administered using an i.v. or i.p. route of administration two hours after occlusion.

A short description of data set [3]: rapid screen of prodrug hydrolysis and drug release in plasma. Type of data set: in vitro ADME. Conditions: 10 ug/mL in fresh rat plasma at 37° C.; stock 1 mg/mL in PEG-400; analysis 5 minutes after incubation; HPLC. How it is done:
A rapid screen to determine the ability of prodrugs to hydrolyze and release the drug (compound of Example 1) is conducted as follows. A 1 mg/mL stock solution of the prodrug is prepared in distilled water or acetonitrile or PEG-400. Plasma from freshly collected rat or human blood is used in this assay. To 1 mL of plasma at 37° C. was added 10 μL of stock solution of prodrug and mixed gently. Immediately after the mixing, 100 μL of plasma was removed and quenched with 300 μL of acetontrile (Zero time sample). Samples were also obtained at 30 minutes and quenched immediately. The quenched samples were centrifuged to obtain a clear supernatant for analysis. The stock solution, T=0 and T=30 samples were analyzed by a HPLC assay that separates the drug from the prodrug. Based on the relative peak areas of prodrug and drug in these samples, different prodrugs are characterized as fast, moderate and slow release agents. For example, in this model, the compound of Example 6 was dissolved in PEG-400 at a concentration of 1 mg/mL and incubated at 10 ug/mL in fresh rat plasma at 37° C.

As to `O=c1oc(-c2ccc(C(F)(F)F)cc2)nn1Cc1cc(Cl)ccc1O` [Example 1, 3-[(5-Chloro-2-hydroxyphenyl)methyl]-5-[4-(trifluoromethyl)phenyl]-1,3,4-oxadiazol-2(3H)-one], in data set [1], the “BK current, % of control of IBTX-sensitive current” value is 126 % of control. The “effect on non-BK native currents in the oocytes” value in data set [2] is “did not effect non-BK native currents”. In addition, the “reduction of cortical infarct volume” value in the data set on cortical infarct volume is listed as “about 18%”.
For the compound `O=C(COP(=O)(O)O)Oc1ccc(Cl)cc1Cn1nc(-c2ccc(C(F)(F)F)cc2)oc1=O` [Example 6, 3-[[5-Chloro-2-[[[(phosphonooxy)methyl]carbonyl]oxy]phenyl]methyl]-5-[4-(trifluoromethyl)phenyl]-1,3,4-oxadiazol-2(3H)-one], the “conversion of prodrug to the drug (compound of Example 1)” value in data set [3] is reported as “conversion of the compound of Example 6 to the compound of Example 1”.
